Assay results reported in article PMC2120445 (The Journal of Cell Biology, 1995).
Like-named read-outs stand apart in the source and are kept apart here. Where no end group is shown, it is not given here.

Legend:
Schwann cells = details: cited from earlier work; for promotion of Schwann cell proliferation: rat sciatic nerve Schwann cells in culture, ref Eccleston, 1992, Ratner et al., 1988
[1] = tested on: sciatic nerve fibroblasts; test: Intracellular cAMP accumulation in sciatic nerve fibroblasts; type: cell-based, rat; details: for dependence of cAMP effect on culture age: with IBMX, 2 d versus 7 d cultures, Fig. 2
[2] = tested on: Schwann cells (rat sciatic nerve); type: cell-based; details: for attenuation (desensitization) of cAMP response with time: Schwann cells, even in the presence of IBMX
[3] = tested on: Schwann cells (rat sciatic nerve); type: cell-based; details: for BrdU incorporation compared with forskolin: agent alone, without PDGF, pulsatile regime; for doubling time / cells synthesizing DNA in 24 h: in the presence of PDGF; for doubling time: estimated from cells synthesizing DNA; for cells synthesizing DNA in 24 h: increased from 10%, Discussion
cultured Schwann cells = details: ref Yasuda et al., 1988; cited from earlier work
macrophages = details: ref Wiik, 1989; Vignery et al., 1991; cited from earlier work
[4] = tested on: neutral endopeptidase 24.11; details: ref Davies et al., 1992; Turner, A. J., personal communication; cited from earlier work
[5] = tested on: Schwann cells (rat sciatic nerve); type: cell-based; details: for doubling time: estimated from BrdU incorporation
PDGF receptor = details: ref Weinmaster and Lemke, 1990, cited from earlier work
[6] = tested on: sciatic nerve fibroblasts; test: Proliferation of sciatic nerve fibroblasts induced by PDGF; type: cell-based, rat; details: Kahn and Mudge, unpublished results
erbB2 receptor = details: Schwann cells; ref Weinmaster and Lemke (1990), Mudge, 1993 (review); cited from earlier work
[7] = with 10 ng/ml PDGF-BB, pulsatile, Fig. 6 b
[8] = cultured Schwann cells, ref Raff et al., 1978a,b, Ridley et al., 1989, Davis and Stroobant, 1990, Weinmaster and Lemke, Chen et al., 1991, Stewart et al., Goodearl et al., 1993, Marchionni et al.

Molecule: FGF-1: growth factor, literature mitogen
- promotion of Schwann cell proliferation (Schwann cells): promote the proliferation

Molecule: peptide histidine-isoleucine [PHI]
- dependence of cAMP effect on culture age [1]: only seen in the older cultures

Molecule: CC(C)NCC(O)c1ccc(O)c(O)c1 (stereo not shown) [isoproterenol]
- dependence of cAMP response on culture age ([2]; 3-d versus 8-d cells, 5 min, Fig. 1): more pronounced in 8-d cells
- attenuation (desensitization) of cAMP response with time ([2]; Fig. 4 a): declined with time in similar fashion to the CGRP response
- BrdU incorporation compared with forskolin ([3]; Fig. 6 b): comparable to the effect of forskolin
- doubling time ([3]; pulsatile): ~ 4 d
- cells synthesizing DNA in 24 h ([3]; pulsatile): ~25%
- type of interaction with PDGF [3, 7]: simply additive
- plateau of cAMP effect (cultured Schwann cells): did not plateau even at 10-4 M

Molecule: cholera toxin
- potentiation of response to growth factors (Schwann cells): greatly potentiated

Molecule: calcitonin gene-related peptide [CGRP]
- desensitization at lower dose ([2]; 10^-8 M CGRP): desensitization was reduced with this dose
- magnitude of cAMP response ([2]; 5 min with 5 x 10^-8 M CGRP without IBMX, Discussion): 8-10 fold
- attenuation (desensitization) of cAMP response with time ([2]; Fig. 4 a): declined rapidly, even in the presence of IBMX
- cAMP over basal after 1 h ([2]; maximal dose of CGRP, declined even in the presence of IBMX, Fig. 4 a): twofold
- increase in cAMP over basal after 5 min ([2]; maximal dose of CGRP, without IBMX, high density, 4 d in defined medium, Fig. 4 a): eightfold
- activity of CGRP after 3 h incubation with Schwann cells ([2]; medium from Schwann cells incubated with CGRP for 3 h transferred to fresh cultures, 5 min, Fig. 5): a comparable stimulation of cAMP
- cAMP in macrophages (macrophages): increase cAMP levels in macrophages
- BrdU incorporation compared with forskolin ([3]; Fig. 6 b): comparable to the effect of forskolin
- doubling time ([3]; pulsatile): ~ 4 d
- cells synthesizing DNA in 24 h ([3]; pulsatile): ~25%
- type of interaction with PDGF [3, 7]: synergistic
- effect together with PDGF compared with forskolin and PDGF ([3]; with PDGF, pulsatile, Fig. 6 b): as effective as forskolin and PDGF
- attenuation of cAMP response ([1]; compared with Schwann cells, 5 x 10-s M CGRP (so in the source), 200 µM IBMX, Fig. 4 b): even more rapid
- substrate of neutral endopeptidase 24.11 [4]: very good substrate

Molecule: C=C[C@@]1(C)CC(=O)[C@]2(O)[C@@]3(C)[C@@H](O)CCC(C)(C)[C@@H]3[C@H](O)[C@H](OC(C)=O)[C@@]2(C)O1 [forskolin]
- doubling time ([5]; 1 µM forskolin with PDGF, continuous): ~ 2 d
- Schwann cells incorporating BrdU in 24 h ([5]; 1 µM forskolin with PDGF, continuous, range in at least 10 different experiments): 40-60%
- increase in BrdU incorporation, together with PDGF ([3]; fold, with 10 ng/ml PDGF-BB, pulsatile, every 3 h with 3-h wash-out, Fig. 6 b): eightfold
- type of interaction with PDGF [3, 7]: synergistic
- synthesis of PDGF beta receptor (PDGF receptor): increased synthesis
- treatment time required to increase PDGF beta receptor mRNA (PDGF receptor): 12 to 24 h
- effect of a single 3-h pulse on PDGF beta receptor mRNA (PDGF receptor; single 3-h pulse): ineffective
- effect on PDGF-induced proliferation of fibroblasts [6]: inhibits the proliferation of sciatic nerve fibroblasts induced by PDGF
- erbB2 receptor expression (erbB2 receptor): upregulated
- DNA synthesis (Schwann cells; 1 µM forskolin and PDGF, ref Stewart et al., 1991): no DNA synthesis
- cells incorporating BrdU in 24 h (Schwann cells; PDGF and 10 µM forskolin, ref Stewart et al., 1991): 6%
- potentiation of response to growth factors (Schwann cells; [8]): greatly potentiated

Molecule: CCCC(=O)Nc1ncnc2c1ncn2[C@@H]1O[C@@H]2COP(=O)(O)O[C@H]2[C@H]1OC(=O)CCC [dibutyryl cAMP]
- potentiation of response to growth factors (Schwann cells; [8]): greatly potentiated

Molecule: glial growth factor [GGF]
- promotion of Schwann cell proliferation (Schwann cells): promote the proliferation
- mitogenicity without forskolin / enhancement of GGF effect (Schwann cells; ref Davis and Stroobant, 1990, Goodearl et al., 1993, Marchionni et al.): is a mitogen without forskolin

Molecule: FGF-2: growth factor, literature mitogen
- promotion of Schwann cell proliferation (Schwann cells): promote the proliferation

Molecule: vasoactive intestinal peptide (HSDAVFTDNYTRLRKQMAVKKYLNSILN; ends and bridges not checked; UniProt P01282 125-152, looked up) [VIP]
- cAMP in macrophages (macrophages): increase cAMP levels in macrophages
- dependence of cAMP effect on culture age [1]: only seen in the older cultures
- plateau of cAMP effect (cultured Schwann cells): did not plateau even at 10-4 M

B1: PDGF: Recombinant human PDGF-BB purchased from R&D Systems (protein, UniProt P01127 82-190, looked up)
Platelet-derived growth …: SLGSLTIAEPAMIAECKTRTEVFEISRRLIDRTNANFLVWPPCVEVQRCSGCCNNRNVQCRPTQVQLRPVQVRKIEIVRKKPIFKKATVTLEDHLACKCETVAAARPVT
- doubling time ([5]; PDGF alone): 10 days
- Schwann cells incorporating BrdU in 24 h ([5]; defined medium with PDGF alone (before forskolin), Discussion): 10%
- promotion of Schwann cell proliferation (Schwann cells): promote the proliferation
